EC50 data for 20 molecules are collected here from US10689367B2, “Triazole pyridyl compounds as agonists of the APJ receptor” (AMGEN INC., priority 2016, dated 2020).

pEC50: −log10 of the molar value.

For the assay, the target named is human APJ receptor (Homo sapiens (Human), UniProt P35414). The assay can be described thus: [35S]GTPγS binding assay on membranes from CHO cells stably expressing human APJ receptor. As to conditions: membranes of CHO cells stably expressing human APJ receptor, read-out: Activity hAPJ SPA EC50 IP. The class given is biochemical. The protocol: The human APJ receptor was cloned by polymerase chain reaction and the gene encoding the receptor was subcloned in pFLAG-CMV™-3 expression vector (Sigma, Saint Louis, Mo. USA) in-house at Amgen. A GTPγS binding assay was performed on membranes prepared from CHO cells stably expressing human APJ receptor. The optimum experimental conditions for the concentrations of GDP, MgCl2, and NaCl in the assay buffer were initially determined. […] Incubation was at RT for 90 min and the microplate was read using a ViewLux™ ultra HTS Microplate Imager (PerkinElmer, Inc.). All the results presented are means of several independent experiments and analyzed by non-linear regression methods using the commercially available program Prism (GraphPad, San Diego, Calif.) providing the EC50 values detailed in Table 27.
human APJ receptor, sequence (P35414 whole entry): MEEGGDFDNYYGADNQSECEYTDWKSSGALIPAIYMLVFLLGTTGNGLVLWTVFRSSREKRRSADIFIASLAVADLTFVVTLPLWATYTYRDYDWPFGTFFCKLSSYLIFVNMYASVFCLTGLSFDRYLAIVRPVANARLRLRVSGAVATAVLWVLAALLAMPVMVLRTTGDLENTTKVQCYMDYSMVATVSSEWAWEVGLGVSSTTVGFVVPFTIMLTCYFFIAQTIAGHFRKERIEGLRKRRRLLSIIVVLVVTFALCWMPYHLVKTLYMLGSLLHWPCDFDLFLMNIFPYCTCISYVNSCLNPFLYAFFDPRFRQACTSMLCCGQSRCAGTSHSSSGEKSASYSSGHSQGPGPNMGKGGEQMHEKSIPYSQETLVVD
A general note: Binding of GTPγS marks nucleotide exchange on a G protein.
On to `COc1cccc(-c2nnc(NS(=O)(=O)[C@@H](C)[C@H](OC)c3ncc(Cl)cn3)n2[C@@H](C)c2ccon2)n1` (single isomer, unassigned) [Example 264.0, (1R,2S)-1-(5-chloro-2-pyrimidinyl)-1-methoxy-N-(5-(6-methoxy-2-pyridinyl)-4-((1R)-1-(1,2-oxazol-3-yl)ethyl)-4H-1,2,4-triazol-3-yl)-2-propanesulfonamide or (1R,2S)-1-(5-chloro-2-pyrimidinyl)-1-methoxy-N-(5-(6-methoxy-2-pyridinyl)-4-((1S)-1-(1,2-oxazol-3-yl)ethyl)-4H-1,2,4-triazol-3-yl)-2-propanesulfonamide], for which the pEC50 (in general, the negative decadic logarithm of the EC50, by convention in mol/L) is 8.54.

Take `COCC(COC)n1c(NS(=O)(=O)[C@@H](C)[C@H](OC)c2ncc(C)cn2)nnc1-c1cccc(OC)n1` [Example 100.0]: the pEC50 was 8.19.

Take `CC[C@H](c1cc(F)cc(F)c1)n1c(NS(=O)(=O)[C@@H](C)[C@H](OC)c2ncc(Cl)cn2)nnc1-c1cccc(OC)n1` (single isomer, unassigned) [Example 342.0, (1R,2S)-1-(5-chloropyrimidin-2-yl)-N-(4-((R)-1-(3,5-difluorophenyl)propyl)-5-(6-methoxypyridin-2-yl)-4H-1,2,4-triazol-3-yl)-1-methoxypropane-2-sulfonamide or (1R,2S)-1-(5-chloropyrimidin-2-yl)-N-(4-((S)-1-(3,5-difluorophenyl)propyl)-5-(6-methoxypyridin-2-yl)-4H-1,2,4-triazol-3-yl)-1-methoxypropane-2-sulfonamide]: the negative-log EC50 (pEC50) is 10.30. As for `COc1cccc(-c2nnc(NS(=O)(=O)[C@@H](C)[C@H](OC)c3ncc(Cl)cn3)n2[C@@H]2CC23CC3)n1` (single isomer, unassigned) [Example 91.0], the figure is 7.42; as for `CCc1cc(Cn2c(NS(=O)(=O)[C@@H](C)[C@H](C)c3ncc(Cl)cn3)nnc2-c2cccc(OC)n2)on1` [Example 196.0, (2S,3R)-3-(5-chloropyrimidin-2-yl)-N-(4-((3-ethylisoxazol-5-yl)methyl)-5-(6-methoxypyridin-2-yl)-4H-1,2,4-triazol-3-yl)butane-2-sulfonamide], 8.32. The value for `COCC1(n2c(NS(=O)(=O)[C@@H](C)[C@H](OC)c3ncc(Cl)cn3)nnc2-c2ccccn2)CCC1` [Example 51.0] was 8.74; that for `COc1cccc(-c2nnc(NS(=O)(=O)[C@@H](C)[C@H](OC)c3ncc(Cl)cn3)n2C[C@H]2CCCO2)n1` (single isomer, unassigned) [Example 280.0, (1R,2S)-1-(5-chloropyrimidin-2-yl)-1-methoxy-N-(5-(6-methoxypyridin-2-yl)-4-(((R)-tetrahydrofuran-2-yl)methyl)-4H-1,2,4-triazol-3-yl)propane-2-sulfonamide or (1R,2S)-1-(5-chloropyrimidin-2-yl)-1-methoxy-N-(5-(6-methoxypyridin-2-yl)-4-(((S)-tetrahydrofuran-2-yl)methyl)-4H-1,2,4-triazol-3-yl)propane-2-sulfonamide] was 7.68; that for `COc1cccc(-c2nnc(NS(=O)(=O)[C@@H](C)[C@@H](OC(C)C)c3ncc(C)cn3)n2[C@@H](C)[C@H]2CCCO2)n1` (single isomer, unassigned) [Example 276.0] was 8.89. As for `COc1cccc(-c2nnc(NS(=O)(=O)[C@@H](C)[C@H](OC)c3ncc(Cl)cn3)n2[C@@H]2CCC23CCC3)n1` (single isomer, unassigned) [Example 93.0], the figure is 8.64. Regarding `COc1cccc(-c2nnc(NS(=O)(=O)[C@@H](C)[C@@H](OC(C)C)c3ncc(C)cn3)n2C[C@H]2CCCCO2)n1` (single isomer, unassigned) [Example 300.0, (1S,2S)-1-isopropoxy-N-(5-(6-methoxypyridin-2-yl)-4-(((R)-tetrahydro-2H-pyran-2-yl)methyl)-4H-1,2,4-triazol-3-yl)-1-(5-methylpyrimidin-2-yl)propane-2-sulfonamide or (1S,2S)-1-isopropoxy-N-(5-(6-methoxypyridin-2-yl)-4-(((S)-tetrahydro-2H-pyran-2-yl)methyl)-4H-1,2,4-triazol-3-yl)-1-(5-methylpyrimidin-2-yl)propane-2-sulfonamide], the pEC50 is 7.85. The value for `COc1cccc(-c2nnc(NS(=O)(=O)[C@@H](C)[C@H](C)c3ncc(Cl)cn3)n2[C@H](C)c2csnn2)n1` (single isomer, unassigned) [Example 295.0, (2S,3R)-N-(4-((R)-1-(1,2,3-thiadiazol-4-yl)ethyl)-5-(6-methoxypyridin-2-yl)-4H-1,2,4-triazol-3-yl)-3-(5-chloropyrimidin-2-yl)butane-2-sulfonamide or (2S,3R)-N-(4-((S)-1-(1,2,3-thiadiazol-4-yl)ethyl)-5-(6-methoxypyridin-2-yl)-4H-1,2,4-triazol-3-yl)-3-(5-chloropyrimidin-2-yl)butane-2-sulfonamide] was 8.19. As for `COc1cccc(-c2nnc(NS(=O)(=O)[C@@H](C)[C@H](OC)c3ncc(Cl)cn3)n2C[C@H]2CCCCO2)n1` (racemic) [Example 287.0, (1R,2S)-1-(5-chloropyrimidin-2-yl)-1-methoxy-N-(5-(6-methoxypyridin-2-yl)-4-(((R)-tetrahydro-2H-pyran-2-yl)methyl)-4H-1,2,4-triazol-3-yl)propane-2-sulfonamide or (1R,2S)-1-(5-chloropyrimidin-2-yl)-1-methoxy-N-(5-(6-methoxypyridin-2-yl)-4-(((S)-tetrahydro-2H-pyran-2-yl)methyl)-4H-1,2,4-triazol-3-yl)propane-2-sulfonamide], the figure is 8.23; as for `COc1cccc(-c2nnc(NS(=O)(=O)[C@@H](C)[C@H](OC)c3ncc(Cl)cn3)n2C[C@H]2CCCCO2)n1` (racemic) [Example 288.0, (1R,2S)-1-(5-chloropyrimidin-2-yl)-1-methoxy-N-(5-(6-methoxypyridin-2-yl)-4-(((R)-tetrahydro-2H-pyran-2-yl)methyl)-4H-1,2,4-triazol-3-yl)propane-2-sulfonamide or (1R,2S)-1-(5-chloropyrimidin-2-yl)-1-methoxy-N-(5-(6-methoxypyridin-2-yl)-4-(((S)-tetrahydro-2H-pyran-2-yl)methyl)-4H-1,2,4-triazol-3-yl)propane-2-sulfonamide], 8.48; as for `COc1cccc(-c2nnc(NS(=O)(=O)[C@@H](C)[C@H](C)c3ncc(Cl)cn3)n2[C@@H](C)c2ccno2)n1` (single isomer, unassigned) [Example 214.0, (2S,3R)-3-(5-chloro-2-pyrimidinyl)-N-(5-(6-methoxy-2-pyridinyl)-4-((1S)-1-(1,2-oxazol-5-yl)ethyl)-4H-1,2,4-triazol-3-yl)-2-butanesulfonamide or (2S,3R)-3-(5-chloro-2-pyrimidinyl)-N-(5-(6-methoxy-2-pyridinyl)-4-((1R)-1-(1,2-oxazol-5-yl)ethyl)-4H-1,2,4-triazol-3-yl)-2-butanesulfonamide], 8.54. Take `COCCOc1cccc(-c2nnc(NS(=O)(=O)[C@@H](C)[C@H](OC)c3ncc(Cl)cn3)n2C(COC)COC)n1` [Example 42.0]: the negative logarithm of the EC50 (pEC50) is 7.77. The value for `COc1cccc(-c2nnc(NS(=O)(=O)[C@@H](C)[C@@H](OC(C)C)c3ncc(C)cn3)n2[C@@H](C)c2nc(C)no2)n1` (single isomer, unassigned) [Example 239.0] was 8.59; that for `COc1cccc(-c2nnc(NS(=O)(=O)[C@@H](C)[C@H](OC)c3ncc(Cl)cn3)n2[C@@H](C)c2noc(C)n2)n1` (single isomer, unassigned) [Example 243.0, (1R,2S)-1-(5-chloro-2-pyrimidinyl)-1-methoxy-N-(5-(6-methoxy-2-pyridinyl)-4-((1S)-1-(5-methyl-1,2,4-oxadiazol-3-yl)ethyl)-4H-1,2,4-triazol-3-yl)-2-propanesulfonamide or (1R,2S)-1-(5-chloro-2-pyrimidinyl)-1-methoxy-N-(5-(6-methoxy-2-pyridinyl)-4-((1R)-1-(5-methyl-1,2,4-oxadiazol-3-yl)ethyl)-4H-1,2,4-triazol-3-yl)-2-propanesulfonamide] was 8.43. On to `COc1cccc(-c2nnc(NS(=O)(=O)[C@@H](C)[C@H](OC)c3ncc(Cl)cn3)n2[C@H](C)c2cncc(F)c2)n1` (single isomer, unassigned) [Example 348.0, (1R,2S)-1-(5-chloropyrimidin-2-yl)-N-(4-((R)-1-(5-fluoropyridin-3-yl)ethyl)-5-(6-methoxypyridin-2-yl)-4H-1,2,4-triazol-3-yl)-1-methoxypropane-2-sulfonamide or (1R,2S)-1-(5-chloropyrimidin-2-yl)-N-(4-((S)-1-(5-fluoropyridin-3-yl)ethyl)-5-(6-methoxypyridin-2-yl)-4H-1,2,4-triazol-3-yl)-1-methoxypropane-2-sulfonamide], for which the pEC50 is 8.87. As for `COc1cccc(-c2nnc(NS(=O)(=O)[C@@H](C)[C@H](OC)c3ncc(Cl)cn3)n2Cc2cc(C(F)(F)F)no2)n1` [Example 205.0, (1R,2S)-1-(5-chloro-2-pyrimidinyl)-1-methoxy-N-(5-(6-methoxy-2-pyridinyl)-4-((3-(trifluoromethyl)-1,2-oxazol-5-yl)methyl)-4H-1,2,4-triazol-3-yl)-2-propanesulfonamide], the figure is 8.35; as for `COc1cccc(-c2nnc(NS(=O)(=O)[C@@H](C)[C@H](OC)c3ncc(Cl)cn3)n2C(CO)CO)n1` [Example 5.0, (1R,2S)-1-(5-chloro-2-pyrimidinyl)-N-(4-(2-hydroxy-1-(hydroxymethyl)ethyl)-5-(6-methoxy-2-pyridinyl)-4H-1,2,4-triazol-3-yl)-1-methoxy-2-propanesulfonamide], 7.30.
